Measured values as given in ChEMBL document CHEMBL4041523, “Design, synthesis, and evaluation of asymmetric EF24 analogues as potential anti-cancer agents for lung cancer” (Eur J Med Chem, 2017).
The source made the active and inactive calls. No cut-off for these calls is given here.

Key:
A549 [1] = test: Cytotoxicity against human A549 cells measured after 72 hrs by MTT assay; type: functional, cell-based; conditions: for IC50: A549, 72 h
[2] = test system: Lewis lung carcinoma cell line; test: Cytotoxicity against mouse LLC cells measured after 72 hrs by MTT assay; type: functional, cell-based
NCI-H1650 = test: Cytotoxicity against human NCI-H1650 cells measured after 72 hrs by MTT assay; type: functional, cell-based; conditions: NCI-H1650, 72 h
A549 [3] = test: Induction of apoptosis in human A549 cells at 20 uM measured after 48 hrs by Annexin-V-FITC/propidium iodide staining based flow cytometry (reference value: 5.91 %); type: functional
A549 [4] = test: Induction of apoptosis in human A549 cells measured after 48 hrs by Annexin-V-FITC/propidium iodide staining based flow cytometry; type: functional, cell-based
[5] = target: Transcription factor p65 (Homo sapiens) (UniProt Q04206); test: Inhibition of TNF-alpha stimulated P65 nuclear translocation in human A549 cells at 10 uM pretreated for 2 hrs followed by TNF-alpha induction measured after 20 mins DAPI-staining based assay; type: cell-based
Sequence of Transcription factor p65 (Homo sapiens) (Q04206 whole entry): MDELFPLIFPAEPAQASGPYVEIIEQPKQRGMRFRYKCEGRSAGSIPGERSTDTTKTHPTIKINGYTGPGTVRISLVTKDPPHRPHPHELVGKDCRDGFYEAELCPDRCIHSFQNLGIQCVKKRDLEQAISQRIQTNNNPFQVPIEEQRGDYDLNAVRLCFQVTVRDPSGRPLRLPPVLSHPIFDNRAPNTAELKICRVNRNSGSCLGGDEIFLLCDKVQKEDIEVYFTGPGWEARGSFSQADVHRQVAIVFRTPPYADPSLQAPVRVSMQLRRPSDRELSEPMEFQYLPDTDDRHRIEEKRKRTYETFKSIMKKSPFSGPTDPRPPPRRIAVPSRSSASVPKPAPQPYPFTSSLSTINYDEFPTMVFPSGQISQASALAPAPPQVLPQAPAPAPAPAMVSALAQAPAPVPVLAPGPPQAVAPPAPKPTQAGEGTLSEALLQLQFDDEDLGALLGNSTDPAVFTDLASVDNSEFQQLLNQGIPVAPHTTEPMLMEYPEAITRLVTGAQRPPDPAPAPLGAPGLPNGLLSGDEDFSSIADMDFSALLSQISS

A549 [6] = test: Induction of apoptosis in human A549 cells assessed as increase in cleaved caspase-3 level at 20 uM measured after 24 hrs by Western blot analysis; type: functional, cell-based
A549 [7] = test: Anti-migratory activity against human A549 cells assessed as reduction in cell migration at 5 uM measured after 24 to 72 hrs by wound healing assay relative to control; type: functional; parameters: scale not given: the % may be the effect or the level left
A549 [8] = test: Induction of apoptosis in human A549 cells assessed as formation of apoptotic bodies measured after 72 hrs by Hoechst 33258 staining based fluorescent microscopic analysis; type: functional, cell-based
[9] = target: T1, NF-kappa-B inhibitor alpha (Homo sapiens) (UniProt P25963); test: Inhibition of TNF-alpha induced IkappaBalpha degradation in human A549 cells measured after 24 hrs by Western blot analysis; type: cell-based
T1 sequence (whole entry): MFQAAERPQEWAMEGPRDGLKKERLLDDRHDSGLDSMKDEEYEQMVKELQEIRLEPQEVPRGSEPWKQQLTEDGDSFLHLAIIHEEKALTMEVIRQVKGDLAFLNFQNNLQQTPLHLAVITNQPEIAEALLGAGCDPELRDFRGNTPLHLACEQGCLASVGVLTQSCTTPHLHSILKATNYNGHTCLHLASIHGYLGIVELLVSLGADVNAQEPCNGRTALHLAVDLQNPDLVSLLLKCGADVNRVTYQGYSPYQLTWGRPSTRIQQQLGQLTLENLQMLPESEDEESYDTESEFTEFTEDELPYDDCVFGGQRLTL

A549 [10] = test: Induction of apoptosis in human A549 cells at 5 uM measured after 48 hrs by Annexin-V-FITC/propidium iodide staining based flow cytometry (reference value: 5.91 %); type: functional
A549 [11] = test: Induction of apoptosis in human A549 cells assessed as ROS production at 10 uM in presence of ROS inhibitor NAC measured after 12 hrs by DCFH-DA staining based flow cytometry (reference value: 7.19 %); type: functional
A549 [12] = test: Induction of apoptosis in human A549 cells assessed as ROS production at 10 uM measured after 12 hrs by DCFH-DA staining based flow cytometry (reference value: 7.19 %); type: functional
A549 [13] = test: Induction of apoptosis in human A549 cells assessed as increase in Bax expression at 10 uM in presence of ROS inhibitor NAC measured after 24 hrs Western blot analysis; type: functional, cell-based
A549 [14] = test: Anti-migratory activity against human A549 cells assessed as reduction in cell migration at 10 uM measured after 24 to 72 hrs by wound healing assay relative to control; type: functional; parameters: scale not given: the % may be the effect or the level left
A549 [15] = test: Induction of apoptosis in human A549 cells assessed as increase in Bax expression at 10 uM measured after 24 hrs Western blot analysis; type: functional, cell-based
A549 [16] = test: Antiproliferative activity against human A549 cells assessed as reduction in colony formation measured after 7 days by crystal violet staining based assay; type: functional, cell-based
A549 [17] = test: Induction of apoptosis in human A549 cells assessed as cell shrinkage measured after 72 hrs by Hoechst 33258 staining based fluorescent microscopic analysis; type: functional
A549 [18] = test: Induction of apoptosis in human A549 cells assessed as chromatin condensation measured after 72 hrs by Hoechst 33258 staining based fluorescent microscopic analysis; type: functional, cell-based
A549 [19] = test: Induction of apoptosis in human A549 cells at 10 uM measured after 48 hrs by Annexin-V-FITC/propidium iodide staining based flow cytometry (reference value: 5.91 %); type: functional
A549 [20] = test: Induction of apoptosis in human A549 cells assessed as reduction in Bcl-2 expression measured after 24 hrs by Western blot analysis; type: functional, cell-based
A549 [21] = test: Induction of apoptosis in human A549 cells assessed as increase in ROS production at 10 uM by DCFH-DA staining based flow cytometry; type: functional, cell-based; conditions: TDE = time-dependent effect
A549 [22] = test: Anti-migratory activity against human A549 cells assessed as reduction in cell migration at 20 uM measured after 24 to 72 hrs by wound healing assay relative to control; type: functional; parameters: scale not given: the % may be the effect or the level left
A549 [23] = test: Induction of apoptosis in human A549 cells assessed as reduction in Bcl-2 expression at 10 uM in presence of ROS inhibitor NAC measured after 24 hrs Western blot analysis; type: functional, cell-based
[24] = target: T2, c-Jun N-terminal kinase, JNK (Homo sapiens) (UniProt P45983+P53779+P45984); test: Induction of ROS-induced JNK phosphorylation in human A549 cells at 10 uM measured after 24 hrs by Western blot analysis; type: cell-based
A549 [25] = test: Induction of apoptosis in human A549 cells assessed as increase in Bax expression measured after 24 hrs by Western blot analysis; type: functional, cell-based
[26] = target: T2, c-Jun N-terminal kinase, JNK (Homo sapiens); test: Induction of ROS-induced JNK phosphorylation in human A549 cells at 10 uM in presence of ROS inhibitor NAC measured after 24 hrs Western blot analysis; type: cell-based
A549 [27] = test: Anti-migratory activity against human A549 cells assessed as reduction in cell migration measured after 24 to 72 hrs by wound healing assay; type: functional, cell-based
A549 [28] = test: Induction of apoptosis in human A549 cells assessed as reduction in Bcl-2 expression at 10 uM measured after 24 hrs Western blot analysis; type: functional, cell-based

Molecule `O=C1/C(=C/c2ccccc2F)CNC/C1=C\c1ccccc1F` has an IC50 (A549 [1]) of 7.1 µM, an IC50 [2] of 8.4 µM and an IC50 (NCI-H1650) of 14.6 µM.
Work on `Cc1ccc2nc(NCCN)c3ncc(C)n3c2c1` [BMS-345541] yielded an IC50 (A549 [1]) of 5.6 µM, an Activity (A549 [3]) of 16.57% and an IC50 [2] of 4.8 µM. The IC50 (NCI-H1650) was 19.9 µM.
With `O=C1/C(=C/c2ccccc2F)COC/C1=C\c1ccccc1Br` the IC50 (A549 [1]) was 6.5 µM, the IC50 [2] was 13.3 µM and the IC50 (NCI-H1650) was 6.5 µM.
With `COc1ccc(OC)c(/C=C2\COC/C(=C\c3ccccc3F)C2=O)c1` the IC50 (A549 [1]) was 8.7 µM, the IC50 [2] was 15.1 µM and the IC50 (NCI-H1650) was 6.8 µM.
Molecule `COc1cc(/C=C/C(=O)CC(=O)/C=C/c2ccc(O)c(OC)c2)ccc1O` [CURCUMIN] has an IC50 (A549 [1]) of 27.8 µM, an IC50 [2] of 24.7 µM and an IC50 (NCI-H1650) of 20.7 µM.
Molecule `COc1cc(/C=C2\COC/C(=C\c3ccccc3F)C2=O)ccc1O` has an IC50 (A549 [1]) of 21.4 µM, an IC50 [2] of 13.1 µM and an IC50 (NCI-H1650) of 18.5 µM.
In the case of `COc1ccc(/C=C2\COC/C(=C\c3ccccc3F)C2=O)cc1O`, the IC50 (A549 [1]) is reported as 13.8 µM, the IC50 [2] is reported as 9.6 µM and the IC50 (NCI-H1650) is reported as 7.5 µM.
Work on `O=C1/C(=C/c2cccc(O)c2)COC/C1=C\c1ccccc1F` yielded an IC50 (A549 [1]) of 7.4 µM, an IC50 [2] of 13.8 µM and an IC50 (NCI-H1650) of 5.7 µM.
Work on `O=C1/C(=C/c2ccccc2)COC/C1=C\c1ccccc1F` yielded an IC50 (A549 [1]) of 17.6 µM, an IC50 [2] of 16 µM and an IC50 (NCI-H1650) of 9.6 µM.
In the case of `O=C1/C(=C/c2ccccc2F)COC/C1=C\c1ccc(Cl)cc1Cl`, the IC50 (A549 [1]) is reported as 7.9 µM, the IC50 [2] is reported as 29.4 µM and the IC50 (NCI-H1650) is reported as 8.6 µM.
In the case of `COc1cc(/C=C2\COC/C(=C\c3ccccc3F)C2=O)cc(OC)c1OC`, the Activity (A549 [4]) is reported as “Dose-dependent effect”, the inhibition [5] is reported as “Active” and the Activity (A549 [6]) is reported as “Active”. The Activity (A549 [1]) was “Dose-dependent effect”, the IC50 (A549 [1]) was 6.3 µM and the Activity (A549 [7]) was 82.2%. The Activity (A549 [8]) was “Dose-dependent effect”, the inhibition [9] was “Dose-dependent effect” and the Activity (A549 [10]) was 6.55%. It also gave an Activity (A549 [3]) of 20.4%, an Activity (A549 [11]) of 5.19% and an Activity (A549 [12]) of 9.81%. For the same molecule, the Activity (A549 [13]) was “inactive”, the Activity (A549 [14]) was 68.7% and the Activity (A549 [15]) was “Active”. For the same molecule, the Activity (A549 [16]) was “Dose-dependent effect”, the Activity (A549 [17]) was “Dose-dependent effect” and the IC50 [2] was 6.1 µM. The Activity (A549 [18]) was “Dose-dependent effect”, the Activity (A549 [19]) was 9.26% and the IC50 (NCI-H1650) was 6.8 µM. The Activity (A549 [20]) was “Dose-dependent effect”, the Activity (A549 [21]) was “Tde” and the Activity (A549 [22]) was 37.9%. For the same molecule, the Activity (A549 [23]) was “inactive”, the Activity [24] was “Active” and the Activity (A549 [25]) was “Dose-dependent effect”. For the same molecule, the Activity [26] was “inactive”, the Activity (A549 [27]) was “Dose-dependent effect” and the Activity (A549 [28]) was “Active”.
Molecule `O=C1/C(=C/c2ccccc2F)COC/C1=C\c1ccccc1C(=O)O` has an IC50 (A549 [1]) of 27.9 µM, an IC50 [2] of 17.2 µM and an IC50 (NCI-H1650) of 15.2 µM.
Work on `COc1ccccc1/C=C1\COC/C(=C\c2ccccc2F)C1=O` yielded an IC50 (A549 [1]) of 5.9 to 11.7 µM, an IC50 [2] of 15.4 to 17.7 µM and an IC50 (NCI-H1650) of 6.5 to 17.6 µM.
